Test results from ChEMBL document CHEMBL4014275, “Discovery of benzofuran-3(2H)-one derivatives as novel DRAK2 inhibitors that protect islet β-cells from apoptosis” (Eur J Med Chem, 2017).

Tests used:
[1] = molecular target: T1, Serine/threonine-protein kinase 17B (Homo sapiens, UniProt O94768); test: Inhibition of recombinant GST-tagged DRAK2 (unknown origin) autophosphorylation after 2 hrs by ADP-glo assay
T1 sequence (O94768 whole entry): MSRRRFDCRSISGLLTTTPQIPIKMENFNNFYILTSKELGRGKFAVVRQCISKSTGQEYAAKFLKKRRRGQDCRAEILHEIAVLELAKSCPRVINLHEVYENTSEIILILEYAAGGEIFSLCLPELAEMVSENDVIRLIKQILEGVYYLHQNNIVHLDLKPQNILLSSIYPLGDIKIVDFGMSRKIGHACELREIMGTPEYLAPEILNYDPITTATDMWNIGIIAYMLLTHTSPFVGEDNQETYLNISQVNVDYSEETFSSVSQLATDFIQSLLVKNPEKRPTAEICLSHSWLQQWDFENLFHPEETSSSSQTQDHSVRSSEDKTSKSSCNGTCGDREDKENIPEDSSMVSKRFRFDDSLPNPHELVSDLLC

[2] = molecular target: Death-associated protein kinase 2 (Homo sapiens, UniProt Q9UIK4); test: Inhibition of human DAPK2
[3] = molecular target: Death-associated protein kinase 3 (Homo sapiens, UniProt O43293); test: Inhibition of human DAPK3
[4] = molecular target: Glycogen synthase kinase-3 beta (Homo sapiens, UniProt P49841); test: Inhibition of human GSK3beta
[5] = molecular target: Tyrosine-protein kinase Blk (Homo sapiens, UniProt P51451); test: Inhibition of human BLK
[6] = molecular target: T2, Serine/threonine-protein kinase 17A (Homo sapiens, UniProt Q9UEE5); test: Inhibition of human DRAK1
T2 sequence (Q9UEE5 whole entry): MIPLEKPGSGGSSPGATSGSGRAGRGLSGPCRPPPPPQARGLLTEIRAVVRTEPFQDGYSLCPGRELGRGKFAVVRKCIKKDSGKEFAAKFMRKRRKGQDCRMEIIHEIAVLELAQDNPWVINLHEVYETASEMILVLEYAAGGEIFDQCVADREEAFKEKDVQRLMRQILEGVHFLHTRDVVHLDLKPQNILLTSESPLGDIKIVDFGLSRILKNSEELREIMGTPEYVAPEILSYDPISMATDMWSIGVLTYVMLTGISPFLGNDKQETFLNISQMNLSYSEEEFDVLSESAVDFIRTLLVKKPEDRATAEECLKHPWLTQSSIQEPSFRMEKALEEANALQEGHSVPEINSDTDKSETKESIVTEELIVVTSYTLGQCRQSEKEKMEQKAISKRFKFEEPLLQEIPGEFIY

Aurora kinase A = molecular target: T3, Aurora kinase A (Homo sapiens, UniProt O14965); test: Inhibition of human AURORA-A
T3 sequence (O14965 whole entry): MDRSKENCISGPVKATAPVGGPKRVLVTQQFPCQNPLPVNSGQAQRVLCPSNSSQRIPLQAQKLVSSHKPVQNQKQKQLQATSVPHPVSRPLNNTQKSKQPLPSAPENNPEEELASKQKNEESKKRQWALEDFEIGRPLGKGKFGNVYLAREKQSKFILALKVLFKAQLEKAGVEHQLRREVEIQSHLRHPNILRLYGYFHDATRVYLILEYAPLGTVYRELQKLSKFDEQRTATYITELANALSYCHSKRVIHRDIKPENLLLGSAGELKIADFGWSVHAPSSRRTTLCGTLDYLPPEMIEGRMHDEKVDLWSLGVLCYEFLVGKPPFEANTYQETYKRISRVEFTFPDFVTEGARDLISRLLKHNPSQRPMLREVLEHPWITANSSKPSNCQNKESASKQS

[7] = molecular target: Tyrosine-protein kinase BTK (Homo sapiens, UniProt Q06187); test: Inhibition of human BTK
[8] = molecular target: T4, Tyrosine-protein kinase ITK/TSK (Homo sapiens, UniProt Q08881); test: Inhibition of human ITK
T4 sequence (Q08881 whole entry): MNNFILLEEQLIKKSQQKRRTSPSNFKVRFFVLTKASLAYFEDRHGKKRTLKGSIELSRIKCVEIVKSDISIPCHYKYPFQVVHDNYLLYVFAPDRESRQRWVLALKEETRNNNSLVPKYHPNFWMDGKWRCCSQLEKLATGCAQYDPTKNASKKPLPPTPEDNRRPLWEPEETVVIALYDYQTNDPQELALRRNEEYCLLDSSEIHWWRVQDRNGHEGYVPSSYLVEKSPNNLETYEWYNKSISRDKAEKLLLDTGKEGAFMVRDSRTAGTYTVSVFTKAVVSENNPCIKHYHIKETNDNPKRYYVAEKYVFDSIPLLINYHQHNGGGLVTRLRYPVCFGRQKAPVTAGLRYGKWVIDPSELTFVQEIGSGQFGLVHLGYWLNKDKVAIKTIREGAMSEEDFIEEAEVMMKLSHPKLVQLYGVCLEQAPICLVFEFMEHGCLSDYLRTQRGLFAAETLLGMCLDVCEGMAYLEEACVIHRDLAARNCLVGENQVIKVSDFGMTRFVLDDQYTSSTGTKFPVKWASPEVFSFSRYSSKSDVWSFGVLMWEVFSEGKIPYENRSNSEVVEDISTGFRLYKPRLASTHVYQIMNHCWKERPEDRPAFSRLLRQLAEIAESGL

Angiopoietin-1 receptor = Angiopoietin-1 receptor (Homo sapiens, UniProt Q02763); test: Inhibition of human TEK
[9] = molecular target: Cyclin-dependent kinase 5 (Homo sapiens, UniProt Q00535); test: Inhibition of human CDK5
[10] = molecular target: Tyrosine-protein kinase SYK (Homo sapiens, UniProt P43405); test: Inhibition of human SYK
[11] = molecular target: Cyclin-dependent kinase 4 (Homo sapiens, UniProt P11802); test: Inhibition of human CDK4
[12] = molecular target: Cyclin-dependent kinase 9 (Homo sapiens, UniProt P50750); test: Inhibition of human CDK9
[13] = molecular target: T5, Tyrosine-protein kinase JAK3 (Homo sapiens, UniProt P52333); test: Inhibition of human JAK3
T5 sequence (P52333 whole entry): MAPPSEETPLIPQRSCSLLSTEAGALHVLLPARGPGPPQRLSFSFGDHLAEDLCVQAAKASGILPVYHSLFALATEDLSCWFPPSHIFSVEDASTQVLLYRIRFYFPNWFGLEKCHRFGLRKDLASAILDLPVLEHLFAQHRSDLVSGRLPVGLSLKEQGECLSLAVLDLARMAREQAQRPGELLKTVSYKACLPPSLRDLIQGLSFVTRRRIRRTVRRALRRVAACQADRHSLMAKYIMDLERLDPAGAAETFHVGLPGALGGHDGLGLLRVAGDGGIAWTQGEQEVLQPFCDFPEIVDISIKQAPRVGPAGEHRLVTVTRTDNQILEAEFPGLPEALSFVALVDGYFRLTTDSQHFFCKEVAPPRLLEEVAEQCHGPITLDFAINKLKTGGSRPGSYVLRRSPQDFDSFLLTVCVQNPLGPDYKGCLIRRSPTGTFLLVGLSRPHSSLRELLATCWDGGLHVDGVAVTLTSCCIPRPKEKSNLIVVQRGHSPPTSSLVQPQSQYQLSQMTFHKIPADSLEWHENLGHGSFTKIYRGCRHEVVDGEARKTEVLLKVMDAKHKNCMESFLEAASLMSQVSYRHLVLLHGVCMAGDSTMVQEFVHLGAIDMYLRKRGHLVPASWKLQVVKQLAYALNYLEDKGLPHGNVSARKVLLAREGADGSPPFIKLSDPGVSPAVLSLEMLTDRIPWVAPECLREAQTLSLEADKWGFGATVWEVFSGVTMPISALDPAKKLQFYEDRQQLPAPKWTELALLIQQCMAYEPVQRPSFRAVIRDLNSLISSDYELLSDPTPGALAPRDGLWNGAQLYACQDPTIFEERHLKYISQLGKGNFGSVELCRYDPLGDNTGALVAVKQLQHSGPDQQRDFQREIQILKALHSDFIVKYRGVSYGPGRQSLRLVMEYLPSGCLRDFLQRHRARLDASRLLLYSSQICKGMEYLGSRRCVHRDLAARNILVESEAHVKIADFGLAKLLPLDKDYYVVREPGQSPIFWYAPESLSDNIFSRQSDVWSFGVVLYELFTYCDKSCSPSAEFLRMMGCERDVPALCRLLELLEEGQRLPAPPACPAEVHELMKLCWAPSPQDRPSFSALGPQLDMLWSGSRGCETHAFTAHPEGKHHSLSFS

[14] = molecular target: Death-associated protein kinase 1 (Homo sapiens, UniProt P53355); test: Inhibition of human DAPK1
[15] = molecular target: Cyclin-dependent kinase 6 (Homo sapiens, UniProt Q00534); test: Inhibition of human CDK6
[16] = molecular target: Tyrosine-protein kinase JAK2 (Homo sapiens, UniProt O60674); test: Inhibition of human JAK2
Sequence of Tyrosine-protein kinase JAK2 (O60674 whole entry): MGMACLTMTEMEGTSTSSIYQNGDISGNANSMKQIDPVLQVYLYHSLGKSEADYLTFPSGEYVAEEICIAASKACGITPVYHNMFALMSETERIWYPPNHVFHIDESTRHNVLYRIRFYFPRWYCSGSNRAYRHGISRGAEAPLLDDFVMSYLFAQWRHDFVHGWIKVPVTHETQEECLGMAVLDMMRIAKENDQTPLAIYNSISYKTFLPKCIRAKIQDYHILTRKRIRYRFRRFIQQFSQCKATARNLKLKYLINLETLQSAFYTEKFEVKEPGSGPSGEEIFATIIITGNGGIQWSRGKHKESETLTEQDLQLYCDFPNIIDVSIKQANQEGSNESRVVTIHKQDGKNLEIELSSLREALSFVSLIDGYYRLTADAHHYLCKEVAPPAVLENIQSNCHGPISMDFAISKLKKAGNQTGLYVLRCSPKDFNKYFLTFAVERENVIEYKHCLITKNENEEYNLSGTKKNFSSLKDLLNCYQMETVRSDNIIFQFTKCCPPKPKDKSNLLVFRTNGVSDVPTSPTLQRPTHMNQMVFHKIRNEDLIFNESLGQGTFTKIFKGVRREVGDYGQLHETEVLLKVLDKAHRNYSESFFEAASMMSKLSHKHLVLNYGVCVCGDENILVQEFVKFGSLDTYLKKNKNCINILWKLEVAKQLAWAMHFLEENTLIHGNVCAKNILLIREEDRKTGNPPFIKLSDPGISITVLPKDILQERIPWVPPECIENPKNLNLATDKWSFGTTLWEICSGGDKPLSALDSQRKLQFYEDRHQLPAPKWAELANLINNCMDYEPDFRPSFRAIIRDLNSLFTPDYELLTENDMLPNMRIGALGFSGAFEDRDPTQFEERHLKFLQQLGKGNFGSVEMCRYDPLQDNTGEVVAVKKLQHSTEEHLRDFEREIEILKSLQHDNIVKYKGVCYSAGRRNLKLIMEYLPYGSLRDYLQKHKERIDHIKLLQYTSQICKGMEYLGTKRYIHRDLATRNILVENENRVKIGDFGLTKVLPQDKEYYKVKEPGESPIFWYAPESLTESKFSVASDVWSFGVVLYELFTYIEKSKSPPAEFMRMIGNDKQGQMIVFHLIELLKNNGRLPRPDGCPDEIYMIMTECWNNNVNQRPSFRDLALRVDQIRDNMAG

Sequence of Death-associated protein kinase 3 (O43293 whole entry): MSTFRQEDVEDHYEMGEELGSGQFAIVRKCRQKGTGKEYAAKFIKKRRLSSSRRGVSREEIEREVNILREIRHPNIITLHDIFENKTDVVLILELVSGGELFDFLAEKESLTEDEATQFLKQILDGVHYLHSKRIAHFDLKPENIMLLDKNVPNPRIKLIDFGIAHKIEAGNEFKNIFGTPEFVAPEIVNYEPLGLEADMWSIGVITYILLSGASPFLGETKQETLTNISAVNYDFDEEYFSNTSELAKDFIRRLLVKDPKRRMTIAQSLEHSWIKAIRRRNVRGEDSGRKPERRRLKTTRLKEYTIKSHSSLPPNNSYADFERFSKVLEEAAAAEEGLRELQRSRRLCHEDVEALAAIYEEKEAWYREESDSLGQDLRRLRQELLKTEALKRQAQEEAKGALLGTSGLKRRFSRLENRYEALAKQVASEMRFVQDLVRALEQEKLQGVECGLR
Sequence of Death-associated protein kinase 2 (Q9UIK4 whole entry): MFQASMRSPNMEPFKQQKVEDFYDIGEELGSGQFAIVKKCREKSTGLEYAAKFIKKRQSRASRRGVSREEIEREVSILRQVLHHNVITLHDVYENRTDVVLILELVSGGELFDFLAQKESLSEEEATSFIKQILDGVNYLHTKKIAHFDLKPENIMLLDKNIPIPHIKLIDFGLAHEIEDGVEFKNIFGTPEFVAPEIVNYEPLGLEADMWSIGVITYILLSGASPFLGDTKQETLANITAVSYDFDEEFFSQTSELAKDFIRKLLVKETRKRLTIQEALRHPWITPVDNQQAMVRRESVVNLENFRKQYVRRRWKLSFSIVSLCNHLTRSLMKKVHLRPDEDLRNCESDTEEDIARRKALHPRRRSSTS
Sequence of Glycogen synthase kinase-3 beta (P49841 whole entry): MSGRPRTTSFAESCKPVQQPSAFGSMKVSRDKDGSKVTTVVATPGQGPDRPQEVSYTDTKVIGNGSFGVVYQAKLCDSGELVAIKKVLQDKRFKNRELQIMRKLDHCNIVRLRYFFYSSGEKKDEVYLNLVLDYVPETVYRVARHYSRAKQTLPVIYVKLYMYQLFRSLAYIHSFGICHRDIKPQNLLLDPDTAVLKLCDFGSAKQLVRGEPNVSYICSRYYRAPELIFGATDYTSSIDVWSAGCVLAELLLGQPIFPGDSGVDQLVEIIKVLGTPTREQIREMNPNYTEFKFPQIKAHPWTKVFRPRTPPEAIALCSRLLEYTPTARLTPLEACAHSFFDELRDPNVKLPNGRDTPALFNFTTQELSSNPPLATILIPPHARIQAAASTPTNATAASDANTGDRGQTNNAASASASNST
Sequence of Cyclin-dependent kinase 5 (Q00535 whole entry): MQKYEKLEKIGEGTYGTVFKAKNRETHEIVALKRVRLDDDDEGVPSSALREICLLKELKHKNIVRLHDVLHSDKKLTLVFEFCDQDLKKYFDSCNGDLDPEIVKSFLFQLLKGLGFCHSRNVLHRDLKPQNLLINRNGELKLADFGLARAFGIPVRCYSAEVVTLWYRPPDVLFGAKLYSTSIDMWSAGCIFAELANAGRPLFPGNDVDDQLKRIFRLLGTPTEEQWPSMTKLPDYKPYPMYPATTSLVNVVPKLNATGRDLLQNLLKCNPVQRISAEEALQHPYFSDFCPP
Sequence of Angiopoietin-1 receptor (Q02763 whole entry): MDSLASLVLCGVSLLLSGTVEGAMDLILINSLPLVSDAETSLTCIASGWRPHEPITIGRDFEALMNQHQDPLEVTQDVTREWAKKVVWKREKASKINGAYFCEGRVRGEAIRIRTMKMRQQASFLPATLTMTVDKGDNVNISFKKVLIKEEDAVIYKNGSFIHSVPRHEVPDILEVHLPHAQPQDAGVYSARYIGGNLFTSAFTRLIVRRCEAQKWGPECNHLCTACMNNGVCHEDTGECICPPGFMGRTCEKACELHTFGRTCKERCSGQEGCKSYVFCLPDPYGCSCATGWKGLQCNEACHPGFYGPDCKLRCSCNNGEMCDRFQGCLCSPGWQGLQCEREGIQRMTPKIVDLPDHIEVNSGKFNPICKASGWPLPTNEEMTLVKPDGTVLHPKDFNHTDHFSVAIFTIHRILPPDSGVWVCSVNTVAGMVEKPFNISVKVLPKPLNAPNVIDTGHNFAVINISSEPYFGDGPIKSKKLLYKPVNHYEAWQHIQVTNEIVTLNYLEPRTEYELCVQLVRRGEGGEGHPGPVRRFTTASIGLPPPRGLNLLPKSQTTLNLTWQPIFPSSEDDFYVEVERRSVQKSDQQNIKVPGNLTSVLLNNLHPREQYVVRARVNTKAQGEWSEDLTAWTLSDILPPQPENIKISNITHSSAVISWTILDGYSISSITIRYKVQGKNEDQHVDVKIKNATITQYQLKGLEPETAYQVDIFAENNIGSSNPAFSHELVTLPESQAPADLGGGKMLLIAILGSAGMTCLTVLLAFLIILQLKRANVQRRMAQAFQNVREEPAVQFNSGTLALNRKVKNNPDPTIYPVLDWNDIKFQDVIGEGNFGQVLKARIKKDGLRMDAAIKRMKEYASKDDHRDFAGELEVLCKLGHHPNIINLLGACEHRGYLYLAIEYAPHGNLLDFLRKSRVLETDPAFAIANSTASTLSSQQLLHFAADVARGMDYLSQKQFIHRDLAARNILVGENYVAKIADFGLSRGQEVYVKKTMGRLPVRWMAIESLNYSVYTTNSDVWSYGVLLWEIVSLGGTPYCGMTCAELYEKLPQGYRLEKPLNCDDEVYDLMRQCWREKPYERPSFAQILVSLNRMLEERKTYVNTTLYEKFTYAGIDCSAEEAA
Sequence of Tyrosine-protein kinase Blk (P51451 whole entry): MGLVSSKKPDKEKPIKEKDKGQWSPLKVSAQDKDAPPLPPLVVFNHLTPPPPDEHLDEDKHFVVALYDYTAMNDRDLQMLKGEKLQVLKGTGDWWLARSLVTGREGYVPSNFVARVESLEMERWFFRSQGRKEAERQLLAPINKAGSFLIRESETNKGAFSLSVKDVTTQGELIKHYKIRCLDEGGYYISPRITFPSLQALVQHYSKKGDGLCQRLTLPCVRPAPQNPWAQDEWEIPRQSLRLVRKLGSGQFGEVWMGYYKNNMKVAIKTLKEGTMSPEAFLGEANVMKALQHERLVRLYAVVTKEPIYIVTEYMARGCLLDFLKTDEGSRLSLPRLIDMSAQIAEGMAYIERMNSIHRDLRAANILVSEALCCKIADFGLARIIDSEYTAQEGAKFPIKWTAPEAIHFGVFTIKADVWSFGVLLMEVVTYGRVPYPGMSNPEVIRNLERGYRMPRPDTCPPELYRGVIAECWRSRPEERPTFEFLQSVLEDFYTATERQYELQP
Sequence of Tyrosine-protein kinase BTK (Q06187 whole entry): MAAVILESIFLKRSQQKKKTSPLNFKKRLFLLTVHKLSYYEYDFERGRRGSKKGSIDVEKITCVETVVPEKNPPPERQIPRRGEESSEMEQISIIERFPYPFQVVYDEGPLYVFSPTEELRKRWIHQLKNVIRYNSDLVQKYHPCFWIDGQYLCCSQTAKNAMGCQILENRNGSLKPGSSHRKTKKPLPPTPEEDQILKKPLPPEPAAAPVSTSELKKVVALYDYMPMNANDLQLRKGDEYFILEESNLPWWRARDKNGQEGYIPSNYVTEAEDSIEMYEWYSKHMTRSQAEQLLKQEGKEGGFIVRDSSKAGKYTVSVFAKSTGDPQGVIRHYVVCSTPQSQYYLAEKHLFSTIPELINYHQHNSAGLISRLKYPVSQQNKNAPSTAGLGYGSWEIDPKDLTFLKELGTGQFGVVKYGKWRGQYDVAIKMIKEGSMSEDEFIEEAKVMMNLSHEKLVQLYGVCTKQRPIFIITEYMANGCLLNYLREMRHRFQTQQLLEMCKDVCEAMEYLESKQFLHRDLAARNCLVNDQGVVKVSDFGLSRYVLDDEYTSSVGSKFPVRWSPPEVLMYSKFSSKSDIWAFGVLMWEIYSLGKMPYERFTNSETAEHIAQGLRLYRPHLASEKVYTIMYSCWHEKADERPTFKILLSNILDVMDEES

| SMILES | IC50 [1] [µM] | other results |
| --- | --- | --- |
| O=C1/C(=C/c2ccc(O)c(O)c2)Cc2ccccc21 | 13.3 | – |
| O=C1/C(=C/c2ccc(O)c(O)c2)Oc2ccccc21 | 3.08 to 3.15 | – |
| O=C1/C(=C/c2ccc(O)cc2)Oc2ccccc21 | 53 | – |
| O=C1/C(=C/c2ccc(F)cc2)Oc2ccccc21 | 40.5 | – |
| COc1cc(/C=C2\Oc3ccccc3C2=O)ccc1O | 3.11 | – |
| CCOc1cc(/C=C2\Oc3ccccc3C2=O)ccc1O | 3.24 | – |
| COc1ccc(-c2cnc3scc(NC(=O)C4CCCCC4)c3c2)cc1OC | 1.31 | IC50 [2]: 55 µM; IC50 [3]: 39.8 µM |
| O=C1/C(=C/c2ccc(CO)cc2)Oc2ccccc21 | 11.1 | – |
| O=C1/C(=C/c2ccco2)Oc2ccccc21 | 64 | – |
| O=C1c2ccccc2OC1Cc1ccc(O)c(O)c1 (stereo not given) | 27.8 | – |
| CCOc1cc(/C=C2\Oc3ccc(Br)cc3C2=O)ccc1O | 28.1 | – |
| COc1ccc(/C=C2\Oc3ccccc3C2=O)cc1O | 12.1 | – |
| CCOc1cc(/C=C2\Oc3ccc(F)cc3C2=O)ccc1O | 1.05 | – |
| O=C1/C(=C/c2cccnc2)Oc2ccccc21 | 39.4 | – |
| O=C1/C(=C/c2ccc(O)c(O)c2)Oc2ccc(O)cc21 | 0.99 | – |
| CCCCOc1ccc2c(c1)C(=O)/C(=C/c1ccc(O)c(OCC)c1)O2 | 3.66 | – |
| CC(C)Oc1cc(/C=C2\Oc3ccccc3C2=O)ccc1O | 17.4 | – |
| CCOc1cc(/C=C2\Oc3c(OC)cccc3C2=O)ccc1O | 1.29 | – |

| SMILES | IC50 [1] [µM] | other results |
| --- | --- | --- |
| CCOc1cc(/C=C2\Oc3ccc(I)cc3C2=O)ccc1O | 42.5 | – |
| CCOc1ccc2c(c1)C(=O)/C(=C/c1ccc(O)c(OCC)c1)O2 | 0.41 | – |
| CCOc1cc(/C=C2\Oc3cc(Cl)ccc3C2=O)ccc1O | 40.5 | – |
| CCOc1cc(/C=C2\Oc3ccc(Cl)cc3C2=O)ccc1O | 13.7 | – |
| COc1ccc2c(c1)C(=O)/C(=C/c1ccc(O)c(O)c1)O2 | 0.25 | IC50 [2]: 6.34 µM; IC50 [4]: 5.3 µM; IC50 [5]: 3.05 µM; IC50 [6]: 5.81 µM; IC50 (Aurora kinase A): 1.05 µM; IC50 [7]: 5.03 µM; IC50 [8]: 2.19 µM; IC50 [3]: 12.1 µM; IC50 (Angiopoietin-1 receptor): 0.51 µM; IC50 [9]: 8.84 µM |
| COc1cc(/C=C2\Oc3ccccc3C2=O)cc(OC)c1O | 6.65 | – |
| CCOc1cc(/C=C2\Oc3cccc(OC)c3C2=O)ccc1O | 7.26 | – |
| CCOc1cc(/C=C2\Oc3ccc(OC(C)=O)cc3C2=O)ccc1O | 0.69 | – |
| CCOc1cc(/C=C2\Oc3cc(F)ccc3C2=O)ccc1O | 60.4 | – |
| CCCCOc1cc(/C=C2\Oc3ccccc3C2=O)ccc1O | 29.1 | – |
| CCOc1cc(/C=C2\Oc3cc(OC)ccc3C2=O)ccc1O | 2.44 | – |
| CCCOc1cc(/C=C2\Oc3ccccc3C2=O)ccc1O | 5.37 | – |
| O=C(c1ccc(O)c(O)c1)c1cc2ccccc2o1 | 22.9 | – |
| CCOc1cc(/C=C2\Oc3ccc(C)cc3C2=O)ccc1O | 0.96 | – |
| CCOc1cc(/C=C2\Oc3ccc(N)cc3C2=O)ccc1O | 7.16 | – |
| COc1ccc(/C=C2\Oc3ccccc3C2=O)cc1OC [3',4'-DIMETHOXY-AURONE] | 21.4 | – |
| O=C1/C(=C/c2ccccc2)Oc2ccccc21 [(Z)-AURONE] | 24.6 | – |
| O=C1/C(=C/c2ccc(O)c(O)c2)Oc2cc(O)ccc21 [SULFURETIN] | 1.02 | IC50 [2]: 3.07 µM; IC50 [10]: 4.63 µM; IC50 [11]: 2.82 µM; IC50 [4]: 1.95 µM; IC50 [5]: 2.88 µM; IC50 [6]: 5.85 µM; IC50 (Aurora kinase A): 0.85 µM; IC50 [12]: 2.16 µM; IC50 [13]: 4.26 µM; IC50 [14]: 13.2 µM; IC50 [7]: 6.02 µM; IC50 [8]: 2.02 µM; IC50 [3]: 2.33 µM; IC50 [15]: 2.44 µM; IC50 [16]: 9.32 µM; IC50 (Angiopoietin-1 receptor): 0.95 µM; IC50 [9]: 1.5 µM |
